Data from PubChem BioAssay AID248 (DTP/NCI, 2004).
Where “and” joins values, the source holds several entries; their conditions need not be identical. Equal entries are not always repeated. Inconclusive results and toxic doses are left out.

Test system: L1210 leukemia ip in BDF1 mice, survival T/C
Experiment: NCI In Vivo Anticancer Drug Screen. Data for tumor model L1210 Leukemia (intraperitoneal) in B6D2F1 (BDF1) mice
Settings: endpoint: mean survival time, higher = longer survival
Procedure, shortened: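 Survival endpoint. Drug-treated group vs vehicle group, expressed as T divided by C. Tumor passaged by transplantation.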

[1] = dose: 100.0 mg/kg/injection, schedule: Q01DX001 (ip), vehicle: Klucel (hydroxypropylcellulose) (HPC)
[2] = dose: 200.0 mg/kg/injection, schedule: Q01DX001 (ip), vehicle: Klucel (hydroxypropylcellulose) (HPC)
[3] = dose: 400.0 mg/kg/injection, schedule: Q01DX001 (ip), vehicle: Klucel (hydroxypropylcellulose) (HPC)
[4] = dose: 100.0 mg/kg/injection, schedule: Q04DX002 (ip), vehicle: Klucel (hydroxypropylcellulose) (HPC)
[5] = dose: 200.0 mg/kg/injection, schedule: Q04DX002 (ip), vehicle: Klucel (hydroxypropylcellulose) (HPC)
[6] = dose: 400.0 mg/kg/injection, schedule: Q04DX002 (ip), vehicle: Klucel (hydroxypropylcellulose) (HPC)
[7] = dose: 100.0 mg/kg/injection, schedule: Q01DX009 (ip), vehicle: saline
[8] = dose: 100.0 mg/kg/injection, schedule: Q04DX002 (ip), vehicle: saline
[9] = dose: 200.0 mg/kg/injection, schedule: Q04DX002 (ip), vehicle: saline
[10] = dose: 400.0 mg/kg/injection, schedule: Q04DX002 (ip), vehicle: saline
[11] = dose: 100.0 mg/kg/injection, schedule: Q01DX009 (ip), vehicle: Klucel (hydroxypropylcellulose) (HPC)
[12] = dose: 100.0 mg/kg/injection, schedule: Q04DX003 (ip), vehicle: Klucel (hydroxypropylcellulose) (HPC)
[13] = dose: 200.0 mg/kg/injection, schedule: Q01DX009 (ip), vehicle: Klucel (hydroxypropylcellulose) (HPC)
[14] = dose: 200.0 mg/kg/injection, schedule: Q04DX003 (ip), vehicle: Klucel (hydroxypropylcellulose) (HPC)
[15] = dose: 400.0 mg/kg/injection, schedule: Q01DX009 (ip), vehicle: Klucel (hydroxypropylcellulose) (HPC)
[16] = dose: 400.0 mg/kg/injection, schedule: Q04DX003 (ip), vehicle: Klucel (hydroxypropylcellulose) (HPC)
[17] = dose: 50.0 mg/kg/injection, schedule: Q01DX001 (ip), vehicle: saline
[18] = dose: 100.0 mg/kg/injection, schedule: Q01DX001 (ip), vehicle: saline
[19] = dose: 200.0 mg/kg/injection, schedule: Q01DX001 (ip), vehicle: saline
[20] = dose: 400.0 mg/kg/injection, schedule: Q01DX001 (ip), vehicle: saline

Compound: CN(C)C(=O)Nc1nc2cc(Cl)c(Cl)cc2[nH]1
- T/C [1]: 98 % of control
- T/C [2]: 100 % of control
- T/C [3]: 94 % of control

Compound: CCOC(=O)CCC[P+](c1ccccc1)(c1ccccc1)c1ccccc1
- T/C (dose: 100.0 mg/kg/injection, schedule: Q01DX009 (ip), vehicle: saline with Tween-80): 107 % of control
- T/C (dose: 200.0 mg/kg/injection, schedule: Q01DX009 (ip), vehicle: saline with Tween-80): 113 % of control

Compound: NC(N)=N/N=C\c1ccc2c(c1)OCO2
- T/C (dose: 15.0 mg/kg/injection, schedule: Q01DX Z (ip), vehicle: saline): 98 % of control
- T/C (dose: 30.0 mg/kg/injection, schedule: Q01DX Z (ip), vehicle: saline): 88 % of control
- T/C (dose: 30.0 mg/kg/injection, schedule: Q01DX Z (oral), vehicle: saline): 92 % of control
- T/C (dose: 60.0 mg/kg/injection, schedule: Q01DX Z (ip), vehicle: saline): 92 % of control
- T/C (dose: 60.0 mg/kg/injection, schedule: Q01DX Z (oral), vehicle: saline): 94 % of control
- T/C (dose: 120.0 mg/kg/injection, schedule: Q01DX Z (oral), vehicle: saline): 97 % of control

Compound: C=CCNC(=S)N(Cc1ccccc1)Cc1ccccc1
- T/C [4]: 105 % of control
- T/C [5]: 101 % of control
- T/C [6]: 94 % of control

Compound: O=[N+]([O-])c1cc2c(cc1Br)-c1ccccc1C2
- T/C (dose: 100.0 mg/kg/injection, schedule: Q01DX005 (ip), vehicle: Klucel (hydroxypropylcellulose) (HPC)): 98 % of control
- T/C [4]: 93 % of control
- T/C (dose: 200.0 mg/kg/injection, schedule: Q01DX005 (ip), vehicle: Klucel (hydroxypropylcellulose) (HPC)): 94 % of control
- T/C [5]: 111 % of control
- T/C (dose: 400.0 mg/kg/injection, schedule: Q01DX005 (ip), vehicle: Klucel (hydroxypropylcellulose) (HPC)): 122 % of control
- T/C [6]: 117 % of control

Compound: O=C(O)/C=C\Cl
- T/C (dose: 25.0 mg/kg/injection, schedule: Q01DX009 (ip), vehicle: saline): 104 % of control
- T/C (dose: 50.0 mg/kg/injection, schedule: Q01DX009 (ip), vehicle: saline): 98 % of control
- T/C [7]: 96 % of control
- T/C [8]: 100 % of control and 94 % of control
- T/C [9]: 93 % of control and 105 % of control
- T/C [10]: 102 % of control

Compound: COc1cc(N2C(=O)C=CC2=O)ccc1N1C(=O)C=CC1=O
- T/C (dose: 5.0 mg/kg/injection, schedule: Q01DX001 (ip), vehicle: saline): 111 % of control
- T/C (dose: 10.0 mg/kg/injection, schedule: Q01DX001 (ip), vehicle: saline): 111 % of control

Compound: N/C(=N\c1nc(-c2ccccc2)cc(-c2ccccc2O)n1)N1CCOCC1
- T/C [4]: 98 % of control
- T/C [5]: 98 % of control
- T/C [6]: 95 % of control

Compound: CCOC(=O)[C@H]1CCC[C@@H](NC(=O)N(CCCl)N=O)C1
- T/C (dose: 5.0 mg/kg/injection, schedule: Q01DX001 (ip), vehicle: other): 108 % of control
- T/C (dose: 10.0 mg/kg/injection, schedule: Q01DX001 (ip), vehicle: other): 123 % of control
- T/C (dose: 20.0 mg/kg/injection, schedule: Q01DX001 (ip), vehicle: other): 194 % of control
- T/C (dose: 31.0 mg/kg/injection, schedule: Q01DX001 (ip), vehicle: other): 329 % of control
- T/C (dose: 40.0 mg/kg/injection, schedule: Q01DX001 (ip), vehicle: other): 305 % of control
- T/C (dose: 62.0 mg/kg/injection, schedule: Q01DX001 (ip), vehicle: other): 254 % of control

Compound: CCN(CC)CCOC(=O)Cc1ccccc1
- T/C [11]: 94 % of control
- T/C [12]: 97 % of control
- T/C [13]: 104 % of control
- T/C [14]: 100 % of control
- T/C [15]: 105 % of control
- T/C [16]: 100 % of control

Compound: Cc1ccc2[nH]c3cc4ccncc4cc3c2c1
- T/C [1]: 89 % of control
- T/C [2]: 94 % of control
- T/C [3]: 93 % of control

Compound: CCCNCCCSCc1ccccc1
- T/C [17]: 111 % of control
- T/C [18]: 103 % of control

Compound: Fc1ccc(C=C2c3ccccc3-c3ccccc32)cc1
- T/C (dose: 25.0 mg/kg/injection, schedule: Q04DX002 (ip), vehicle: gum acacia): 109 % of control
- T/C (dose: 50.0 mg/kg/injection, schedule: Q04DX002 (ip), vehicle: gum acacia): 92 % of control
- T/C (dose: 100.0 mg/kg/injection, schedule: Q04DX002 (ip), vehicle: gum acacia): 92 % of control

Compound: CCCCCCCCCCCCCCCCOc1ccc(C)cc1
- T/C (dose: 100.0 mg/kg/injection, schedule: Q04DX003 (ip), vehicle: saline with Tween-80): 100 % of control
- T/C (dose: 200.0 mg/kg/injection, schedule: Q04DX003 (ip), vehicle: saline with Tween-80): 103 % of control
- T/C (dose: 400.0 mg/kg/injection, schedule: Q04DX003 (ip), vehicle: saline with Tween-80): 97 % of control

Compound: CCOC(=O)C(C(C)=O)C(C)=O
- T/C [17]: 101 % of control
- T/C [18]: 107 % of control
- T/C [19]: 97 % of control
- T/C [20]: 97 % of control

Compound: CCOCCOCCOC(C)Oc1ccc(Cl)cc1Cl (stereo unspecified)
- T/C (dose: 100.0 mg/kg/injection, schedule: Q04DX002 (ip), vehicle: saline with Tween-80): 97 % of control
- T/C (dose: 200.0 mg/kg/injection, schedule: Q04DX002 (ip), vehicle: saline with Tween-80): 94 % of control
- T/C (dose: 400.0 mg/kg/injection, schedule: Q04DX002 (ip), vehicle: saline with Tween-80): 100 % of control

Compound: Cc1cc2oc(/C=N/N3CCOCC3)c(C)c2cc1C
- T/C [11]: 96 % of control
- T/C [12]: 90 % of control
- T/C [13]: 103 % of control
- T/C [14]: 102 % of control
- T/C [15]: 99 % of control
- T/C [16]: 98 % of control

Compound: CCC(NC(=O)CN)C(=O)O (stereo unspecified)
- T/C [7]: 100 % of control and 107 % of control
- T/C [8]: 97 % of control and 101 % of control and 91 % of control
- T/C (dose: 100.0 mg/kg/injection, schedule: Q04DX003 (ip), vehicle: saline): 93 % of control
- T/C (dose: 200.0 mg/kg/injection, schedule: Q01DX009 (ip), vehicle: saline): 102 % of control and 92 % of control
- T/C [9]: 97 % of control and 105 % of control
- T/C (dose: 200.0 mg/kg/injection, schedule: Q04DX003 (ip), vehicle: saline): 94 % of control
- T/C (dose: 400.0 mg/kg/injection, schedule: Q01DX009 (ip), vehicle: saline): 102 % of control and 111 % of control
- T/C [10]: 108 % of control and 100 % of control and 118 % of control
- T/C (dose: 400.0 mg/kg/injection, schedule: Q04DX003 (ip), vehicle: saline): 98 % of control

Compound: O=C1CC(C(=O)O)C(c2ccccc2F)O1 (stereo unspecified)
- T/C [12]: 98 % of control
- T/C [14]: 101 % of control
- T/C [16]: 103 % of control

Compound: O=C(CC(c1ccccc1)(c1ccccc1)c1ccccc1)c1ccccc1
- T/C (dose: 50.0 mg/kg/injection, schedule: Q01DX001 (ip), vehicle: carboxymethylcellulose (CMC)): 98 % of control
- T/C (dose: 100.0 mg/kg/injection, schedule: Q01DX001 (ip), vehicle: carboxymethylcellulose (CMC)): 93 % of control
- T/C (dose: 200.0 mg/kg/injection, schedule: Q01DX001 (ip), vehicle: carboxymethylcellulose (CMC)): 90 % of control
- T/C (dose: 400.0 mg/kg/injection, schedule: Q01DX001 (ip), vehicle: carboxymethylcellulose (CMC)): 93 % of control

Compound: CCCCn1c(N)cc(=O)[nH]c1=S
- T/C [17]: 100 % of control
- T/C [18]: 93 % of control
- T/C [19]: 106 % of control
- T/C [20]: 100 % of control

Compound: CCOC(=O)C12CCC(=O)CC1(O)CCC1(C2)OCCCO1 (stereo unspecified)
- T/C (dose: 100.0 mg/kg/injection, schedule: Q## X003 (ip), vehicle: saline): 98 % of control
- T/C (dose: 200.0 mg/kg/injection, schedule: Q## X003 (ip), vehicle: saline): 104 % of control
- T/C (dose: 400.0 mg/kg/injection, schedule: Q## X003 (ip), vehicle: saline): 102 % of control

Compound: CCCCCCCCCCCCCCCCOc1ccc(C(=O)Nc2ccc(S(=O)(=O)Nc3cccc4ccccc34)cc2)cc1S(=O)(=O)F
- T/C [12]: 102 % of control
- T/C [14]: 100 % of control
- T/C [16]: 93 % of control

Compound: Cc1ccc(O)c(C2CC3CCC2C3)c1 (stereo unspecified)
- T/C (dose: 100.0 mg/kg/injection, schedule: Q04DX003 (ip), vehicle: saline + alcohol): 97 % of control
- T/C (dose: 200.0 mg/kg/injection, schedule: Q04DX003 (ip), vehicle: saline + alcohol): 92 % of control
- T/C (dose: 400.0 mg/kg/injection, schedule: Q04DX003 (ip), vehicle: saline + alcohol): 95 % of control
